This is an account of results in PMC7699592, “Interaction between the Lentil Lipid Transfer Protein Lc-LTP2 and Its Novel Signal Ligand PI(4,5)P2” (Membranes, 2020).

Format in all cases: binding
In experiment [1] the target is T1, Lc-LTP2 (Lens culinaris, UniProt A0AT29).
T1 construct: recombinant mature protein, overexpressed in Escherichia coli, purified; four disulfide bonds
T1 sequence (A0AT29 26-118): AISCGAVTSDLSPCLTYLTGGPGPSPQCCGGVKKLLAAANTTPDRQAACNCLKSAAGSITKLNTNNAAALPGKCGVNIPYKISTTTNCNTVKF
The experiment in a line: TNS fluorescent probe displacement. Particulars: 4 uM LTP, 10 uM PI(4,5)P2, 3 uM TNS, pH 7.0, 25 °C.

Experiment [2] concerns the target T2, Lc-LTP2 (Lens culinaris, UniProt A0AT29, R70A/Y105A).
T2 construct: recombinant mature protein, overexpressed in Escherichia coli, purified; four disulfide bonds
The experiment in a line: TNS fluorescent probe displacement. Particulars: 4 uM LTP, 10 uM PI(4,5)P2, 3 uM TNS, pH 7.0, 25 °C.

Experiment [3] deals with T3, LTP from strawberry (strawberry LTP) (Fragaria x ananassa, UniProt Q8VX12).
T3 construct: recombinant, overexpressed in Escherichia coli, purified; four disulfide bonds
The experiment in a line: TNS fluorescent probe displacement. Particulars: 4 uM LTP, 10 uM PI(4,5)P2, 3 uM TNS, pH 7.0, 25 °C.

Experiment [4] has as its target T4, LTP from ragweed (ragweed LTP) (Ambrosia artemisiifolia, UniProt O04004).
T4 construct: recombinant, overexpressed in Escherichia coli, purified; four disulfide bonds
T4 sequence (O04004 26-118): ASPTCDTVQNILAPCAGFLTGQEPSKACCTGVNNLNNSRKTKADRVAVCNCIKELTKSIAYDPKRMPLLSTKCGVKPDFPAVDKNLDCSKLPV
The experiment in a line: TNS fluorescent probe displacement. Particulars: 4 uM LTP, 10 uM PI(4,5)P2, 3 uM TNS, pH 7.0, 25 °C.

The target of experiment [5] is T5, Lc-LTP2 (Lens culinaris, UniProt A0AT29, Y105A).
T5 construct: recombinant mature protein, overexpressed in Escherichia coli, purified; four disulfide bonds
T5 sequence (A0AT29 26-118 Y105A): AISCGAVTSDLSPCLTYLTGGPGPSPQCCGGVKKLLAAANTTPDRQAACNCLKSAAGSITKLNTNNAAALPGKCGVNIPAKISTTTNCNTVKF
The experiment in a line: TNS fluorescent probe displacement. The following applies: 4 uM LTP, 10 uM PI(4,5)P2, 3 uM TNS, pH 7.0, 25 °C.

Experiment [6] addresses T6, LTP from mugwort (mugwort LTP) (Artemisia vulgaris, UniProt C4MGG9).
T6 construct: gene Art v 3; recombinant, overexpressed in Escherichia coli, purified; four disulfide bonds
T6 sequence (C4MGG9 24-114): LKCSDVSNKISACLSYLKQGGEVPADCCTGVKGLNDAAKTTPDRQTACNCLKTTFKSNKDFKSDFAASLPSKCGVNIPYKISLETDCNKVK
The experiment in a line: TNS fluorescent probe displacement. Particulars: 4 uM LTP, 10 uM PI(4,5)P2, 3 uM TNS, pH 7.0, 25 °C.

In experiment [7] the target is T6, LTP from mugwort (mugwort LTP). The experiment in a line: protein-lipid overlay on membrane lipid strips. The following applies: lipid immobilised, 100 pM per spot; PBS; anti-Lc-LTP2 antibody detection.
Experiment [8] concerns the target T7, LTP from strawberry (strawberry LTP) (Fragaria x ananassa, UniProt Q8VX12).
T7 construct: gene lpt46; recombinant, overexpressed in Escherichia coli, purified; four disulfide bonds
T7 sequence (Q8VX12 27-117): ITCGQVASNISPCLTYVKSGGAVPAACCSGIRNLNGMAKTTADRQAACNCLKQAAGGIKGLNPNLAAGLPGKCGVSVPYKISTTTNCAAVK
The experiment in a line: protein-lipid overlay on membrane lipid strips. The following applies: lipid immobilised, […] per spot; PBS; anti-Lc-LTP2 antibody detection.

The target of experiment [9] is T4, LTP from ragweed (ragweed LTP). As to the kind of experiment: protein-lipid overlay on membrane lipid strips. Particulars: lipid immobilised, 100 pM per spot; PBS; anti-Lc-LTP2 antibody detection.

T2 sequence (A0AT29 26-118 R70A/Y105A): as the sequence (A0AT29 26-118 Y105A) above, with R45A counted along it

Take PI(4,5)P2: the “% reduction of LTP-TNS fluorescence” value on Lc-LTP2 [1] turned out to be 21%; at Lc-LTP2 [2], 16%; in experiment [3], 14%; in [4], 9%; at Lc-LTP2 [5], 8%; in [6] it was 11%.
Regarding `CCCCCCCCCCCCCCCC(=O)OC[C@H](COP(=O)(O)O[C@@H]1[C@H](O)[C@H](O)[C@@H](OP(=O)(O)O)[C@H](OP(=O)(O)O)[C@H]1O)OC(=O)CCCCCCCCCCCCCCC` [PI(4,5)P2 diC16], the “protein-lipid overlay on membrane lipid strips” value in experiment [7], in experiment [8] and in experiment [9] was “Protein-lipid overlay assays with other LTPs from the abovementioned plants led to the same results” throughout.
